Where “and” joins values, the source holds several entries; their conditions need not be identical. Identical values can stand only once. Inconclusive results and toxic doses are left out.
Tested on: AKR/Lw mice, AKR lymphoma ip, median survival T/C
Experiment: NCI In Vivo Anticancer Drug Screen. Data for tumor model Lymphoma AKR (Transplanted) (intraperitoneal) in AKR/Lw mice
Conditions: endpoint: median survival time, higher = longer survival
Method: The antitumor activity of compounds was measured in mice bearing transplantable tumors. Survival or tumor size were measured and the results are expressed as the measurement made in the treated group (T) divided by the measurement made in the vehicle treated control group (C). The tumor model used in this assay is Lymphoma AKR (Transplanted) (intraperitoneal) in AKR/Lw mice

[1] = dose: 100.0 mg/kg/injection, schedule: Q01DX001 (ip), vehicle: Klucel (hydroxypropylcellulose) (HPC)
[2] = dose: 200.0 mg/kg/injection, schedule: Q01DX001 (ip), vehicle: Klucel (hydroxypropylcellulose) (HPC)

## CC[C@]1(O)C[C@H]2CN(CCc3c([nH]c4ccccc34)[C@@](C(=O)OC)(c3cc4c(cc3OC)N(C=O)[C@H]3[C@@](O)(C(=O)OC)[C@H](OC(C)=O)[C@]5(CC)C=CCN6CC[C@]43[C@@H]65)C2)C1
dose: 0.01 mg/kg/injection, schedule: Q10DX002 (ip), vehicle: saline
  T/C: 113 % of control
dose: 0.02 mg/kg/injection, schedule: Q01DX001 (ip), vehicle: saline
  T/C: 110 % of control
dose: 0.02 mg/kg/injection, schedule: Q04DX003 (ip), vehicle: saline
  T/C: 86 % of control
dose: 0.02 mg/kg/injection, schedule: Q10DX002 (ip), vehicle: saline
  T/C: 119 % of control
dose: 0.03 mg/kg/injection, schedule: Q04DX003 (ip), vehicle: saline
  T/C: 93 % of control and 107 % of control and 114 % of control
dose: 0.03 mg/kg/injection, schedule: Q10DX002 (ip), vehicle: saline
  T/C: 119 % of control
dose: 0.05 mg/kg/injection, schedule: Q01DX001 (ip), vehicle: saline
  T/C: 101 % of control
dose: 0.05 mg/kg/injection, schedule: Q04DX003 (ip), vehicle: saline
  T/C: 94 % of control
dose: 0.06 mg/kg/injection, schedule: Q04DX002 (ip), vehicle: saline
  T/C: 110 % of control
dose: 0.06 mg/kg/injection, schedule: Q04DX003 (ip), vehicle: saline
  T/C: 111 % of control and 116 % of control
dose: 0.1 mg/kg/injection, schedule: Q01DX001 (ip), vehicle: saline
  T/C: 103 % of control
dose: 0.1 mg/kg/injection, schedule: Q04DX003 (ip), vehicle: saline
  T/C: 94 % of control
dose: 0.12 mg/kg/injection, schedule: Q01DX001 (ip), vehicle: saline
  T/C: 100 % of control and 111 % of control and 119 % of control
dose: 0.12 mg/kg/injection, schedule: Q01DX009 (ip), vehicle: saline
  T/C: 109 % of control
dose: 0.13 mg/kg/injection, schedule: Q04DX002 (ip), vehicle: water
  T/C: 90 % of control and 95 % of control
dose: 0.2 mg/kg/injection, schedule: Q04DX003 (ip), vehicle: saline
  T/C: 94 % of control
dose: 0.25 mg/kg/injection, schedule: Q01DX009 (ip), vehicle: saline
  T/C: 109 % of control
dose: 0.4 mg/kg/injection, schedule: Q04DX003 (ip), vehicle: saline
  T/C: 118 % of control
dose: 0.5 mg/kg/injection, schedule: Q04DX002 (ip), vehicle: saline
  T/C: 223 % of control
dose: 0.5 mg/kg/injection, schedule: Q04DX002 (ip), vehicle: water
  T/C: 107 % of control and 109 % of control
dose: 0.75 mg/kg/injection, schedule: Q01DX001 (ip), vehicle: saline
  T/C: 157 % of control
dose: 1.0 mg/kg/injection, schedule: Q04DX003 (ip), vehicle: saline
  T/C: 359 % of control
dose: 1.0 mg/kg/injection, schedule: Q10DX002 (ip), vehicle: saline
  T/C: 33 % of control
dose: 1.5 mg/kg/injection, schedule: Q10DX002 (ip), vehicle: saline
  T/C: 68 % of control
dose: 0.2 micrograms/kg/injection, schedule: Q01DX009 (ip), vehicle: saline
  T/C: 103 % of control
dose: 0.5 micrograms/kg/injection, schedule: Q01DX009 (ip), vehicle: saline
  T/C: 100 % of control
dose: 0.6 micrograms/kg/injection, schedule: Q01DX009 (ip), vehicle: saline
  T/C: 96 % of control
dose: 1.0 micrograms/kg/injection, schedule: Q01DX009 (ip), vehicle: saline
  T/C: 86 % of control and 100 % of control
dose: 1.2 micrograms/kg/injection, schedule: Q01DX009 (ip), vehicle: saline
  T/C: 87 % of control
dose: 2.0 micrograms/kg/injection, schedule: Q01DX009 (ip), vehicle: saline
  T/C: 94 % of control
dose: 6.0 micrograms/kg/injection, schedule: Q01DX009 (ip), vehicle: saline
  T/C: 102 % of control and 114 % of control
dose: 15.0 micrograms/kg/injection, schedule: Q01DX009 (ip), vehicle: saline
  T/C: 122 % of control
dose: 20.0 micrograms/kg/injection, schedule: Q01DX009 (ip), vehicle: saline
  T/C: 97 % of control
dose: 25.0 micrograms/kg/injection, schedule: Q01DX009 (ip), vehicle: saline
  T/C: 97 % of control
dose: 30.0 micrograms/kg/injection, schedule: Q01DX009 (ip), vehicle: saline
  T/C: 112 % of control
dose: 50.0 micrograms/kg/injection, schedule: Q01DX009 (ip), vehicle: saline
  T/C: 102 % of control
dose: 60.0 micrograms/kg/injection, schedule: Q01DX009 (ip), vehicle: saline
  T/C: 120 % of control
dose: 100.0 micrograms/kg/injection, schedule: Q01DX009 (ip), vehicle: saline
  T/C: 114 % of control

## N#CCCNc1ccc(NC(=O)C(F)(F)F)cc1
dose: 25.0 mg/kg/injection, schedule: Q01DX009 (ip), vehicle: Klucel (hydroxypropylcellulose) (HPC)
  T/C: 96 % of control
dose: 50.0 mg/kg/injection, schedule: Q01DX009 (ip), vehicle: Klucel (hydroxypropylcellulose) (HPC)
  T/C: 89 % of control
dose: 50.0 mg/kg/injection, schedule: Q04DX003 (ip), vehicle: other
  T/C: 90 % of control
dose: 100.0 mg/kg/injection, schedule: Q01DX001 (ip), vehicle: saline
  T/C: 103 % of control
dose: 100.0 mg/kg/injection, schedule: Q04DX003 (ip), vehicle: other
  T/C: 95 % of control
dose: 200.0 mg/kg/injection, schedule: Q01DX001 (ip), vehicle: saline
  T/C: 100 % of control
dose: 200.0 mg/kg/injection, schedule: Q04DX003 (ip), vehicle: other
  T/C: 95 % of control

## c1cc2cc3c(cc2c2c1CC1c4cc5c(cc4CCN1C2)OCO5)OCO3 (stereo not drawn)
[1]
  T/C: 102 % of control
dose: 100.0 mg/kg/injection, schedule: Q04DX003 (ip), vehicle: Klucel (hydroxypropylcellulose) (HPC)
  T/C: 103 % of control
[2]
  T/C: 97 % of control
dose: 200.0 mg/kg/injection, schedule: Q04DX003 (ip), vehicle: Klucel (hydroxypropylcellulose) (HPC)
  T/C: 96 % of control
dose: 400.0 mg/kg/injection, schedule: Q04DX003 (ip), vehicle: Klucel (hydroxypropylcellulose) (HPC)
  T/C: 92 % of control

## O=C(O)CCC(=O)Nc1cccc(Oc2ccc([N+](=O)[O-])cc2[N+](=O)[O-])c1
[1]
  T/C: 100 % of control
[2]
  T/C: 87 % of control
dose: 400.0 mg/kg/injection, schedule: Q01DX001 (ip), vehicle: Klucel (hydroxypropylcellulose) (HPC)
  T/C: 90 % of control

Reference: PubChem BioAssay AID190 (DTP/NCI, 2004)
